Measured values reported in patent publication US20150290333A1, “PROCESS AND MATERIALS FOR MEDICAL APPLICATIONS” (NATIONAL UNIVERSITY OF SINGAPORE, priority 2012, published 2015).

System: human mesenchymal stem cells
Experiment: Pinocytosis inhibition studies
Type: cell-based
Settings: PVP, Fc70, Fc400
Procedure: Cells were viewed with a FV300 laser scanning confocal microscope (Olympus, Japan). The excitation beam from a 543-nm HeNe ion laser (MellesGriot, Singapore) was focused by a water immersion objective (60×, NA1.2, Olympus) into the fluorescent sample. For organelle co-localization studies, an additional 488-nm Ar laser (MellesGriot, Singapore) was used to excite fluorescent organelle labels. Images were acquired with the Olympus FV300 software.
hMSCs (Lonza) were pre-incubated for 1 hour with 10 mM methyl beta cyclodextrin (MBCD, Sigma-Aldrich), 28 μM chlorpromazine (CPZ, Sigma-Aldrich), 300 μM amiloride (Am, Sigma-Aldrich), and 10 μM monensin (Mon, Sigma-Aldrich) in serum-free LGDMEM. The cells were then incubated for a further 1 hour with a mixture of each inhibitor and each TRITC-labelled polymer in serum-free LGDMEM.

For `N=C(N)NC(=O)c1nc(Cl)c(N)nc1N` [Am, amiloride], the “Effect of pinocytosis inhibitor on uptake of TRITC-labelled polymers” value (“Effect of pinocytosis inhibitor” for short) (300 μM inhibitor) was “no significant effects”.
With `CN(C)CCCN1c2ccccc2Sc2ccc(Cl)cc21` [CPZ, chlorpromazine] the “Effect of pinocytosis inhibitor” value (28 μM inhibitor) was “reduced polymer presence across the board, but trapped Fc in the worm-like compartments”.
For `CC[C@@]1([C@@H]2O[C@@H]([C@H]3O[C@@](O)(CO)[C@H](C)C[C@@H]3C)C[C@@H]2C)CC[C@H]([C@]2(C)CC[C@]3(C[C@H](O)[C@@H](C)[C@@H]([C@@H](C)[C@@H](OC)[C@H](C)C(=O)O)O3)O2)O1` [Monensin, monensin], the “Effect of pinocytosis inhibitor” value (10 μM inhibitor) was “did not inhibit uptake of polymers but arrested them in a seam of vesicles at the periphery of the cells”.
In the case of methyl-beta-cyclodextrin [MβCD], the “Effect of pinocytosis inhibitor” value (10 mM inhibitor) is reported as “completely inhibited uptake of all polymers”.
